Experimental data as given in PubChem BioAssay AID2060905 (Molecular Pharmacology Branch, DTP, NCI, 2025).

Test system: 282377-053-R-J1-PDC complex spheroid viability
Experiment: Anticancer human tumor 282377-053-R-J1-PDC patient-derived colon adenocarcinoma cell line growth inhibition [RAS]
Conditions: for IC50: curve of first compound; for viability, T/C: stronger effect = lower value
Summary of the method: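 Tumour cells grown as complex spheroids with HUVEC endothelial cells and mesenchymal stem cells, treated with RAS pathway inhibitor combinations. Each agent spans half-log steps from near clinical Cmax, or 10 microM where Cmax is unknown.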
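Also: spheroids exposed to agents for seven days before readout.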
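For viability, T/C in this document: luminescence viability as percent of DMSO vehicle control wells.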

For `CC(=O)OC12COC1CC(O)C1(C)C(=O)C(O)C3=C(C)C(OC(=O)C(O)C(NC(=O)OC(C)(C)C)c4ccccc4)CC(O)(C(OC(=O)c4ccccc4)C21)C3(C)C` (centres undefined) + C=CC(=O)N1CCN(c2nc(OCC3CCCN3C)nc3c(F)c(-c4nc(N)cc(C)c4C(F)(F)F)c(Cl)cc23)C(C)C1, the IC50 (second compound 0.00316 µM) was < 31.6 nM, the IC50 (second compound 0.01 µM) was < 31.6 nM and the IC50 (second compound 0.0316 µM) was < 31.6 nM. The IC50 (second compound 0.1 µM) was < 31.6 nM, the IC50 (second compound 0.316 µM) was < 31.6 nM and the IC50 (second compound 1 µM) was < 31.6 nM. For the same molecule, the viability, T/C (second compound 0.00316 µM, first compound 0.0316 µM) was 24.3%, the viability, T/C (second compound 0.00316 µM, first compound 0.1 µM) was 19.9% and the viability, T/C (second compound 0.00316 µM, first compound 0.316 µM) was 16.3%. For the same molecule, the viability, T/C (second compound 0.00316 µM, first compound 1 µM) was 29.4%, the viability, T/C (second compound 0.00316 µM, first compound 3.16 µM) was 39.7% and the viability, T/C (second compound 0.00316 µM, first compound 10 µM) was 54.2%. It also gave a viability, T/C (second compound 0.01 µM, first compound 0.0316 µM) of 25.9%, a viability, T/C (second compound 0.01 µM, first compound 0.1 µM) of 18% and a viability, T/C (second compound 0.01 µM, first compound 0.316 µM) of 22.7%. The viability, T/C (second compound 0.01 µM, first compound 1 µM) was 27.5%, the viability, T/C (second compound 0.01 µM, first compound 3.16 µM) was 38.6% and the viability, T/C (second compound 0.01 µM, first compound 10 µM) was 51.8%. For the same molecule, the viability, T/C (second compound 0.0316 µM, first compound 0.0316 µM) was 22.9%, the viability, T/C (second compound 0.0316 µM, first compound 0.1 µM) was 20.5% and the viability, T/C (second compound 0.0316 µM, first compound 0.316 µM) was 18.1%. For the same molecule, the viability, T/C (second compound 0.0316 µM, first compound 1 µM) was 26.9%, the viability, T/C (second compound 0.0316 µM, first compound 3.16 µM) was 34.2% and the viability, T/C (second compound 0.0316 µM, first compound 10 µM) was 57.8%. It also gave a viability, T/C (second compound 0.1 µM, first compound 0.0316 µM) of 24.1%, a viability, T/C (second compound 0.1 µM, first compound 0.1 µM) of 21.2% and a viability, T/C (second compound 0.1 µM, first compound 0.316 µM) of 20.1%. It also gave a viability, T/C (second compound 0.1 µM, first compound 1 µM) of 28.1%, a viability, T/C (second compound 0.1 µM, first compound 3.16 µM) of 38.4% and a viability, T/C (second compound 0.1 µM, first compound 10 µM) of 57.3%. It also gave a viability, T/C (second compound 0.316 µM, first compound 0.0316 µM) of 22%, a viability, T/C (second compound 0.316 µM, first compound 0.1 µM) of 21.6% and a viability, T/C (second compound 0.316 µM, first compound 0.316 µM) of 24.1%. For the same molecule, the viability, T/C (second compound 0.316 µM, first compound 1 µM) was 25.5%, the viability, T/C (second compound 0.316 µM, first compound 3.16 µM) was 45.7% and the viability, T/C (second compound 0.316 µM, first compound 10 µM) was 53.6%. For the same molecule, the viability, T/C (second compound 1 µM, first compound 0.0316 µM) was 27.8%, the viability, T/C (second compound 1 µM, first compound 0.1 µM) was 19.3% and the viability, T/C (second compound 1 µM, first compound 0.316 µM) was 28.1%. For the same molecule, the viability, T/C (second compound 1 µM, first compound 1 µM) was 38%, the viability, T/C (second compound 1 µM, first compound 3.16 µM) was 44% and the viability, T/C (second compound 1 µM, first compound 10 µM) was 58.6%.
For `CC(C)n1nc(-c2ccc3oc(N)nc3c2)c2c(N)ncnc21` + CCn1c(-c2cc(N3CCN(C)CC3)cnc2C(C)OC)c2c3cc(ccc31)-c1csc(n1)CC(NC(=O)C1CC1C)C(=O)N1CCCC(N1)C(=O)OCC(C)(C)C2, the IC50 (second compound 0.000949 µM) was > 100 nM, the IC50 (second compound 0.003 µM) was 60.5 nM and the IC50 (second compound 0.00949 µM) was 96.2 nM. For the same molecule, the IC50 (second compound 0.03 µM) was 43.8 nM, the IC50 (second compound 0.0949 µM) was 45.1 nM and the IC50 (second compound 0.3 µM) was > 100 nM. For the same molecule, the viability, T/C (second compound 0.000949 µM, first compound 0.000316 µM) was 68.7%, the viability, T/C (second compound 0.000949 µM, first compound 0.001 µM) was 101% and the viability, T/C (second compound 0.000949 µM, first compound 0.00316 µM) was 86.2%. The viability, T/C (second compound 0.000949 µM, first compound 0.01 µM) was 74.5%, the viability, T/C (second compound 0.000949 µM, first compound 0.0316 µM) was 64.3% and the viability, T/C (second compound 0.000949 µM, first compound 0.1 µM) was 50.4%. The viability, T/C (second compound 0.003 µM, first compound 0.000316 µM) was 103%, the viability, T/C (second compound 0.003 µM, first compound 0.001 µM) was 102% and the viability, T/C (second compound 0.003 µM, first compound 0.00316 µM) was 77.8%. For the same molecule, the viability, T/C (second compound 0.003 µM, first compound 0.01 µM) was 72.1%, the viability, T/C (second compound 0.003 µM, first compound 0.0316 µM) was 61.7% and the viability, T/C (second compound 0.003 µM, first compound 0.1 µM) was 42.1%. The viability, T/C (second compound 0.00949 µM, first compound 0.000316 µM) was 96.1%, the viability, T/C (second compound 0.00949 µM, first compound 0.001 µM) was 102% and the viability, T/C (second compound 0.00949 µM, first compound 0.00316 µM) was 93.8%. The viability, T/C (second compound 0.00949 µM, first compound 0.01 µM) was 73.4%, the viability, T/C (second compound 0.00949 µM, first compound 0.0316 µM) was 54.3% and the viability, T/C (second compound 0.00949 µM, first compound 0.1 µM) was 49.5%. It also gave a viability, T/C (second compound 0.03 µM, first compound 0.000316 µM) of 104%, a viability, T/C (second compound 0.03 µM, first compound 0.001 µM) of 88% and a viability, T/C (second compound 0.03 µM, first compound 0.00316 µM) of 88.9%. The viability, T/C (second compound 0.03 µM, first compound 0.01 µM) was 62.4%, the viability, T/C (second compound 0.03 µM, first compound 0.0316 µM) was 54% and the viability, T/C (second compound 0.03 µM, first compound 0.1 µM) was 43.5%. For the same molecule, the viability, T/C (second compound 0.0949 µM, first compound 0.000316 µM) was 100%, the viability, T/C (second compound 0.0949 µM, first compound 0.001 µM) was 84.9% and the viability, T/C (second compound 0.0949 µM, first compound 0.00316 µM) was 86.9%. It also gave a viability, T/C (second compound 0.0949 µM, first compound 0.01 µM) of 60.7%, a viability, T/C (second compound 0.0949 µM, first compound 0.0316 µM) of 57.7% and a viability, T/C (second compound 0.0949 µM, first compound 0.1 µM) of 39.5%. It also gave a viability, T/C (second compound 0.3 µM, first compound 0.000316 µM) of 90.3%, a viability, T/C (second compound 0.3 µM, first compound 0.001 µM) of 98.8% and a viability, T/C (second compound 0.3 µM, first compound 0.00316 µM) of 78.3%. The viability, T/C (second compound 0.3 µM, first compound 0.01 µM) was 65.5%, the viability, T/C (second compound 0.3 µM, first compound 0.0316 µM) was 58.9% and the viability, T/C (second compound 0.3 µM, first compound 0.1 µM) was 48.9%.
